According to EP0664121A1, “Inhibition of ldl oxidation and atherosclerosis” (ELI LILLY AND COMPANY, priority 1993, dated 1995):

Legend:
[1] = test system: Resident macrophages from the mouse peritoneal cavity; assay: Macrophage-mediated oxidation (cellular modification) of LDL, TBAR values; type: cell-based; settings: LDL 1 mg/ml, 24 hrs, media-alone value subtracted
Procedure: Resident macrophages from the mouse peritoneal cavity were plated at 1 x 10⁶ cells per well in F10 media without serum. […] The wells designated media alone represents LDL incubated overnight on the same plate with F10 media without cells. This value was subtracted from the TBAR values obtained in the presence of resident macrophages and reflects the extent of cellular modification of LDL.

LDL = assay: Thiobarbituric acid assay of copper-induced LDL peroxidation; type: biochemical; settings: 250 µg LDL in 1 ml, 5 µM CuSO₄, 5-18 hrs at 37 degrees C
Procedure: The thiobarbituric acid assay as described by Schuh et al., (PNAS 75: 3173, 1978) and modified by Morel et al., (Lab Invest 55: 419, 1986) was used to determine the degree of inhibition of LDL peroxidation by estradiol and Compound A of the invention. A 1 ml solution containing 250 micrograms (µg) of LDL with either estradiol or Compound A of the invention in amounts varying from 1-30 µM is incubated for 5-18 hrs at 37 degrees C in the presence of 5 µM CuSO₄. Following incubation, 1 ml of 25% trichloroacetic acid and 1 ml of 1% thiobarbituric acid is added. All samples are boiled for 45 minutes and fluorescence is measured at 515 nm excitation and 553 nm emission wavelengths. (Compound A is a compound of formula 1 wherein R₁ and R₃ are hydrogen, and R₂ is 1-pyrrolidino).

Compound	TBAR Units ([1]; 25 µM compound)	TBAR Units ([1]; 1 µM compound)	TBAR Units ([1]; 2.5 µM compound)	TBAR Units ([1]; 5 µm compound)	TBAR Units (LDL; 1µM compound)	TBAR Units (LDL; 5µM compound)	TBAR Units (LDL; 25µM compound)
C[C@]12CC[C@@H]3c4ccc(O)cc4CC[C@H]3[C@@H]1CC[C@@H]2O [Estradiol, estradiol, reference compound]	30 TBAR Units						
O=C(c1ccc(OCCN2CCCC2)cc1)c1c(-c2ccc(O)cc2)sc2cc(O)ccc12 [Compound A]		129 TBAR Units	75 TBAR Units	30 TBAR Units	142 TBAR UNITS	109 TBAR UNITS	78 TBAR UNITS
